Experimental data taken from ChEMBL document CHEMBL5244272 (Eur J Med Chem, 2021).
In brackets after ≈: the same amount, converted by molar mass.

Experiments:
Plasmodium falciparum [1] = assay: Antimalarial activity against chloroquine resistant Plasmodium falciparum FcB1/Colombia; type: functional, organism-based
[2] = Selectivity index, ratio of IC50 for human AB943 to IC50 for chloroquine resistant Plasmodium falciparum FcB1/Colombia
Plasmodium berghei [3] = assay: Antimalarial activity against Plasmodium berghei infected in mouse; type: functional
Plasmodium berghei [4] = assay: Antimalarial activity against Plasmodium berghei infected in mouse assessed cured animal rate measured after 25 days; type: functional; conditions: time 25 day
Plasmodium falciparum [5] = assay: Antimalarial activity against ART-resistant Plasmodium falciparum harboring R539T mutant assessed as increase in survival at 700 nM; type: functional
Plasmodium berghei [6] = assay: Antimalarial activity against Plasmodium berghei N strain infected in mouse at 30 mg/kg, ip administered once daily for 4 days; type: functional; conditions: time 4 day
Plasmodium falciparum [7] = assay: Antimalarial activity against Plasmodium falciparum K1; type: functional, organism-based
Plasmodium falciparum [8] = assay: Antimalarial activity against chloroquine sensitive Plasmodium falciparum FCR-3; type: functional, organism-based
Plasmodium berghei [9] = assay: Antimalarial activity against Plasmodium berghei N strain infected in mouse at 15 mg/kg, ip administered once daily for 4 days; type: functional; conditions: time 4 day
[10] = Cytotoxicity against human MRC5 cells; type: toxicity, cell-based
Plasmodium berghei [11] = assay: Antimalarial activity against Plasmodium berghei K173 infected in mouse; type: functional; conditions: Plasmodium berghei, K173
Plasmodium berghei [12] = assay: Potency index, ratio of artesunic acid ED50 to test compound ED50 for Plasmodium berghei; type: functional
Plasmodium falciparum [13] = assay: Antimalarial activity against chloroquine resistant Plasmodium falciparum; type: functional, organism-based
Plasmodium falciparum [14] = assay: Antimalarial activity against Plasmodium falciparum 3D7; type: functional, organism-based
Plasmodium vinckei [15] = assay: Antimalarial activity against Plasmodium vinckei infected in po dosed mouse; type: functional
Plasmodium vinckei [16] = assay: Antimalarial activity against Plasmodium vinckei infected in ip dosed mouse; type: functional
Plasmodium falciparum [17] = assay: Antimalarial activity against Plasmodium falciparum D6; type: functional, organism-based
Plasmodium berghei [18] = assay: Antimalarial activity against Plasmodium berghei infected in mouse assessed as increase in survival at 100 mg/kg, po; type: functional
Plasmodium falciparum [19] = assay: Antimalarial activity against Plasmodium falciparum W2; type: functional, organism-based
Plasmodium falciparum [20] = assay: Potency index, ratio of artesunate IC50 to test compound IC50 for chloroquine resistant Plasmodium falciparum; type: functional
Plasmodium falciparum [21] = assay: Antimalarial activity against Plasmodium falciparum; type: functional, organism-based
Plasmodium falciparum [22] = assay: Antimalarial activity against chloroquine-sensitive Plasmodium falciparum NF54; type: functional, organism-based
Plasmodium falciparum [23] = assay: Potency index, ratio of artesunate IC50 to test compound IC50 for Plasmodium falciparum NF54; type: functional
Plasmodium falciparum [24] = assay: Antimalarial activity against Plasmodium falciparum NF54; type: functional, organism-based
[25] = Selectivity index, ratio of IC50 for HEK293 cells to IC50 for Plasmodium falciparum NF54; type: toxicity; conditions: human, read-out: Ratio IC50
Plasmodium chabaudi = assay: Antimalarial activity against Plasmodium chabaudi infected in mouse; type: functional
Plasmodium vinckei [26] = assay: Antimalarial activity against Plasmodium vinckei infected in mouse assessed as reduction in parasitaemia at 25 mg/kg, po or 7.5 mg/kg, ip measured on day 5; type: functional; parameters: scale not given: the % may be the effect or the level left
Plasmodium vinckei [27] = assay: Antimalarial activity against Plasmodium vinckei infected in mouse assessed as reduction in parasitaemia at 50 mg/kg, po or […], ip measured on day 5; type: functional; parameters: scale not given: the % may be the effect or the level left
Plasmodium berghei [28] = assay: Antimalarial activity against Plasmodium berghei ANKA infected in po dosed mouse; type: functional; conditions: Plasmodium berghei, ANKA
Plasmodium berghei [29] = assay: Antimalarial activity against Plasmodium berghei ANKA infected in mouse at 30 mg/kg, po; type: functional
Plasmodium falciparum [30] = assay: Antimalarial activity against chloroquine-sensitive Plasmodium falciparum NF54 infected in po dosed mouse; type: functional
Plasmodium yoelii = assay: Antimalarial activity against Plasmodium yoelii infected in mouse; type: functional
Plasmodium falciparum [31] = assay: Antimalarial activity against chloroquine-sensitive Plasmodium falciparum NF54 infected in iv dosed mouse; type: functional
[32] = read-out: ED50 (the source's name)

Structure (SMILES): CCOP(=O)(CCCN(O)C(=O)CCC(=O)N(CCCCNC(=O)CCO[C@H]1O[C@@H]2O[C@]3(C)CC[C@H]4[C@H](C)CC[C@@H]([C@H]1C)[C@@]24OO3)CCCCNC(=O)CC[C@@H]1O[C@@H]2O[C@@]3(C)CC[C@@H]4[C@@H](C)CC[C@@H]([C@@H]1C)[C@]24OO3)OCC
- IC50 (Plasmodium falciparum [1]): 0.65 nM
- Ratio IC50 [2]: 34

Structure (SMILES): CC(C)(N)CNC(=O)C[C@H]1CC[C@]2(CC1)OO[C@]1(O2)C2CC3CC(C2)CC1C3 [OZ277]
- Activity (Plasmodium berghei [3]): 67%
- Activity (Plasmodium berghei [4]): 60%
- Activity (Plasmodium falciparum [5]): 0.01%

Structure (SMILES): C[C@H]1C(=O)O[C@@H]2O[C@]3(C)CC[C@H]4N(Cc5ccccc5)CC[C@@H]1[C@@]24OO3
- Activity (Plasmodium berghei [6]): 95.6%
- IC50 (Plasmodium falciparum [7]): 86 nM
- IC50 (Plasmodium falciparum [8]): 58 nM
- Activity (Plasmodium berghei [9]): 69.1%
- IC50 [10]: 160000 nM

Structure (SMILES): CC(O[C@H]1O[C@@H]2O[C@@]3(C)CC[C@H]4[C@H](C)CC[C@@H]([C@H]1C)[C@@]24OO3)c1ccc(CN2CCOCC2)c(O)c1 (stereo not given in full)
- ED50 (Plasmodium berghei [11]): 0.64 mg/kg/day
- ED50 (Plasmodium berghei [3]; Plasmodium berghei): 0.64 mg/kg/day
- Ratio ED50 (Plasmodium berghei [12]): 10

Structure (SMILES): COCCC[C@]12O[C@H]([C@@H]3OO[C@H]1O3)[C@H](C)C(=O)[C@@H]2C
- IC50 (Plasmodium falciparum [13]): 2 microg/cm3

Structure (SMILES): C[C@H]1[C@@H](OCCNCCNc2ccnc3cc(Cl)ccc23)O[C@@H]2O[C@]3(C)CC[C@H]4[C@H](C)CC[C@@H]1[C@@]24OO3
- IC50 (Plasmodium falciparum [14]): 20.5 nM
- ED50 (Plasmodium vinckei [15]): 16 mg/kg
- ED50 (Plasmodium vinckei [16]): 1.4 mg/kg

Structure (SMILES): C[C@H]1[C@@H](OCC(CO[C@H]2O[C@@H]3O[C@]4(C)CC[C@H]5[C@H](C)CC[C@@H]([C@H]2C)[C@@]35OO4)=NO)O[C@@H]2O[C@]3(C)CC[C@H]4[C@H](C)CC[C@@H]1[C@@]24OO3
- IC50 (Plasmodium falciparum [17]): 13.8 nM
- Activity (Plasmodium berghei [18]): 100%
- IC50 (Plasmodium falciparum [19]): 9.9 nM

Structure (SMILES): C[C@H]1[C@@H](OCC(CO[C@H]2O[C@@H]3O[C@]4(C)CC[C@H]5[C@H](C)CC[C@@H]([C@H]2C)[C@@]35OO4)=NOC(=O)CCC(=O)O)O[C@@H]2O[C@]3(C)CC[C@H]4[C@H](C)CC[C@@H]1[C@@]24OO3
- Activity (Plasmodium berghei [18]): 100%

Structure (SMILES): C[C@H]1[C@@H](OCCNCCCNc2ccnc3cc(Cl)ccc23)O[C@@H]2O[C@]3(C)CC[C@H]4[C@H](C)CC[C@@H]1[C@@]24OO3
- IC50 (Plasmodium falciparum [14]): 5.2 nM
- ED50 (Plasmodium vinckei [15]): 13 mg/kg
- ED50 (Plasmodium vinckei [16]): < 0.8 mg/kg

Structure (SMILES): C[C@H]1[C@H](CCCO)O[C@@H]2O[C@]3(C)CC[C@H]4[C@H](C)CC[C@@H]1[C@@]24OO3
- Ratio IC50 (Plasmodium falciparum [20]): 5
- IC50 (Plasmodium falciparum [21]): 0.23 ng/mL (≈ 0.705 nM)

Structure (SMILES): C[C@H]1[C@H](OC(=O)c2cccc3c2OCO3)O[C@@H]2O[C@]3(C)CC[C@H]4[C@H](C)CC[C@@H]1[C@@]24OO3
- IC50 (Plasmodium falciparum [22]): 8.08 nM
- Ratio IC50 (Plasmodium falciparum [23]): 2.3

Structure (SMILES): CC(C)CCC[C@H](C)C1CC[C@H]2[C@@H]3CC=C4C[C@@H](OC(=O)CCCCCN5CCN([C@H]6O[C@@H]7O[C@]8(C)CC[C@H]9[C@H](C)CC[C@@H]([C@H]6C)[C@@]79OO8)CC5)CC[C@]4(C)[C@H]3CC[C@]12C (stereo not given in full)
- IC50 (Plasmodium falciparum [24]): 78 nM
- IC50 (Plasmodium falciparum [7]): 52 nM
- IC50 (Plasmodium falciparum [19]): 70 nM
- selectivity ratio [25]: 1820

Structure (SMILES): C[C@H]1[C@@H](CCc2ccc(C(=O)O)cc2)O[C@@H]2O[C@]3(C)CC[C@H]4[C@H](C)CC[C@@H]1[C@@]24OO3
- EC50 (Plasmodium falciparum [14]; [32]): 1.1 ng/mL
- EC50 (Plasmodium falciparum [7]; [32]): 0.6 ng/mL (≈ 1.44 nM)
- Activity (Plasmodium chabaudi): 98.7%

Structure (SMILES): C[C@H]1[C@@H](OCCN2CC[N+](CCNc3ccnc4cc(Cl)ccc34)(CCO[C@H]3O[C@@H]4O[C@]5(C)CC[C@H]6[C@H](C)CC[C@@H]([C@H]3C)[C@@]46OO5)CC2)O[C@@H]2O[C@]3(C)CC[C@H]4[C@H](C)CC[C@@H]1[C@@]24OO3
- Activity (Plasmodium vinckei [26]): <1%
- Activity (Plasmodium vinckei [27]): <1%

Structure (SMILES): O=C(CC1CCC2(CC1)OOC1(OO2)C2CC3CC(C2)CC1C3)N1CCOCC1 (stereo not given)
- ED90 (Plasmodium berghei [28]): 3.88 mg/kg
- Activity (Plasmodium berghei [29]): 100%

Structure (SMILES): C[C@H]1[C@H](OC(=O)CCC(=O)O)O[C@@H]2O[C@@]3(C)CC[C@H]4[C@H](C)CC[C@@H]1[C@@]24OO3 [ARTESUNATE]
- IC50 (Plasmodium falciparum [24]): 1.2 ng/mL
- ED50 (Plasmodium falciparum [30]): 5.5 mg/kg
- ED50 (Plasmodium berghei [11]): 6.33 mg/kg/day
- Activity (Plasmodium berghei [6]): 97.7%
- EC50 (Plasmodium falciparum [14]; read-out: EC50): 8.9 nM
- ED50 (Plasmodium yoelii): 5 mg/kg
- IC50 (Plasmodium falciparum [22]): 18.4 nM
- IC50 (Plasmodium falciparum [7]): 1.2 ng/mL
- IC50 (Plasmodium falciparum [19]): 2 nM
- ED50 (Plasmodium falciparum [31]): 5.5 mg/kg

Structure (SMILES): CC(=O)OCCC[C@]12O[C@H]([C@@H]3OO[C@H]1O3)[C@H](C)C(=O)[C@@H]2C
- IC50 (Plasmodium falciparum [13]): 3 microg/cm3
